Measured values as given in BigSolDB 2.1.

O=C(O)c1cccc(C(=O)O)c1
Conditions | solubility (mole fraction)
in ethanol, 294.35 K | 0.004
in ethanol, 296.95 K | 0.0042
in ethanol, 298.15 K | 0.0043
in ethanol, 300.55 K | 0.0047
in ethanol, 306.15 K | 0.0051
in ethanol, 308.85 K | 0.0053
in ethanol, 310.85 K | 0.0056
in ethanol, 313.65 K | 0.0063
in ethanol, 318.35 K | 0.0068
in ethanol, 320.45 K | 0.0072
in ethanol, 324.15 K | 0.0075
in ethanol, 326.75 K | 0.0078
in ethanol, 330.85 K | 0.0085
in ethanol, 331.75 K | 0.0089
in ethanol, 335.05 K | 0.0093
in isobutanol, 318.65 K | 0.0025
in isobutanol, 323.55 K | 0.0033
in isobutanol, 327.85 K | 0.004
in isobutanol, 331.05 K | 0.0047
in isobutanol, 336.15 K | 0.0055
in isobutanol, 340.05 K | 0.0061
in isobutanol, 343.05 K | 0.0066
in isobutanol, 346.65 K | 0.0072
in isobutanol, 348.95 K | 0.0079
in isobutanol, 351.05 K | 0.0085
in isobutanol, 355.05 K | 0.0092
in isobutanol, 356.05 K | 0.0098
in isobutanol, 360.75 K | 0.0108
in isopropanol, 304.65 K | 0.0046
in isopropanol, 308.45 K | 0.0052
in isopropanol, 310.95 K | 0.0057
in isopropanol, 316.45 K | 0.0063
in isopropanol, 319.45 K | 0.0068
in isopropanol, 322.15 K | 0.0075
in isopropanol, 324.85 K | 0.0081
in isopropanol, 326.95 K | 0.0086
in isopropanol, 331.35 K | 0.0095
in isopropanol, 334.35 K | 0.0103
in isopropanol, 337.55 K | 0.0111
in isopropanol, 342.25 K | 0.012
in isopropanol, 344.25 K | 0.0126
in methanol, 288.35 K | 0.0029
in methanol, 292.45 K | 0.0031
in methanol, 295.65 K | 0.0032
in methanol, 298.65 K | 0.0035
in methanol, 299.65 K | 0.0036
in methanol, 302.15 K | 0.004
in methanol, 305.25 K | 0.0044
in methanol, 308.45 K | 0.0047
in methanol, 311.85 K | 0.0049
in methanol, 313.45 K | 0.0051
in methanol, 316.65 K | 0.0056
in methanol, 319.25 K | 0.0056
in methanol, 320.15 K | 0.006
in methanol, 323.15 K | 0.0064
in methanol, 326.05 K | 0.0068
in methanol, 328.15 K | 0.0072
in n-butanol, 309.65 K | 0.0039
in n-butanol, 314.35 K | 0.0044
in n-butanol, 319.95 K | 0.0052
in n-butanol, 324.45 K | 0.0057
in n-butanol, 328.05 K | 0.0062
in n-butanol, 332.15 K | 0.007
in n-butanol, 335.25 K | 0.0076
in n-butanol, 338.05 K | 0.0081
in n-butanol, 340.95 K | 0.0091
in n-butanol, 345.45 K | 0.0099
in n-butanol, 347.95 K | 0.0104
in n-propanol, 303.75 K | 0.0033
in n-propanol, 305.65 K | 0.0039
in n-propanol, 311.65 K | 0.0043
in n-propanol, 315.35 K | 0.0049
in n-propanol, 318.85 K | 0.0054
in n-propanol, 322.55 K | 0.0059
in n-propanol, 326.65 K | 0.0064
in n-propanol, 330.45 K | 0.007
in n-propanol, 337.95 K | 0.0091
in n-propanol, 340.15 K | 0.0093
in n-propanol, 341.95 K | 0.01
in n-propanol, 345.95 K | 0.0113
in n-propanol, 348.15 K | 0.0122
in sec-butanol, 302.45 K | 0.0025
in sec-butanol, 306.35 K | 0.0033
in sec-butanol, 309.25 K | 0.004
in sec-butanol, 314.15 K | 0.0049
in sec-butanol, 317.65 K | 0.0057
in sec-butanol, 322.15 K | 0.0071
in sec-butanol, 326.25 K | 0.0085
in sec-butanol, 331.35 K | 0.0098
in sec-butanol, 339.35 K | 0.0117
in sec-butanol, 342.35 K | 0.0126
in tert-butanol, 303.65 K | 0.0026
in tert-butanol, 307.95 K | 0.0038
in tert-butanol, 312.15 K | 0.0047
in tert-butanol, 315.35 K | 0.0059
in tert-butanol, 318.35 K | 0.0073
in tert-butanol, 321.15 K | 0.0091
in tert-butanol, 324.55 K | 0.0106
in tert-butanol, 328.75 K | 0.0125
in tert-butanol, 331.65 K | 0.0141
in tert-butanol, 334.95 K | 0.016
in tert-butanol, 338.45 K | 0.0177
in tert-butanol, 342.65 K | 0.0194
in tert-butanol, 345.65 K | 0.0203
